# In patent US10508085B2, “Compounds and methods for IDO and TDO modulation, and indications therefor” (Plexxikon Inc., priority 2016, dated 2019):
# Columns and labels:
# [1] = target: T1, Human Tryptophan 2,3-dioxygenase (TDO) (Homo sapiens, UniProt P48775); assay: Human TDO enzymatic assay (kynurenine level); type: biochemical; conditions: 1 nM TDO, 350 μM L-Trp; geometric mean; read-out: TDO GMean: IC50 (μM) (Biochemical Assay)
# T1 construct: His tag (N); made in house; host or cells: E. coli
# T1 sequence (P48775 whole entry): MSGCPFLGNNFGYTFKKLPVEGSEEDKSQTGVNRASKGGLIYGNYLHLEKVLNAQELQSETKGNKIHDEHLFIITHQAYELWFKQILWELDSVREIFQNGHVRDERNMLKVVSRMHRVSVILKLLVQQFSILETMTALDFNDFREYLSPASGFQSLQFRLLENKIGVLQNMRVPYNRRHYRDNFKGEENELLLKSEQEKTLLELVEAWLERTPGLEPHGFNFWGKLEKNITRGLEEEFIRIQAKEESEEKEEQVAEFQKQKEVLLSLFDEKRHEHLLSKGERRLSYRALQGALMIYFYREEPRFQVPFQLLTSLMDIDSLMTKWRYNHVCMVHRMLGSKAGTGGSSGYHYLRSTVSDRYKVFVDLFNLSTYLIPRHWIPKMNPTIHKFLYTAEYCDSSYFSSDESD
# How it was run: (§1)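 Reactions were stopped with TCA, converting N-formylkynurenine to kynurenine for quantitation, with IC50 by nonlinear regression. IDO: 6 nM enzyme, 10 μM L-Trp, 20 min RT. TDO: 1 nM enzyme, 350 μM L-Trp, 70 min RT, both in pH 6.5 buffer.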
# [2] = target: T2, Human Indoleamine 2,3-dioxygenase (IDO) (Homo sapiens, UniProt P14902); assay: Human IDO enzymatic assay (kynurenine level); type: biochemical; conditions: 6 nM IDO, 10 μM L-Trp; geometric mean; read-out: IDO1 GMean: IC50 (μM) (Biochemical Assay)
# T2 construct: His tag (N); made in house; host or cells: E. coli
# T2 sequence (P14902 whole entry): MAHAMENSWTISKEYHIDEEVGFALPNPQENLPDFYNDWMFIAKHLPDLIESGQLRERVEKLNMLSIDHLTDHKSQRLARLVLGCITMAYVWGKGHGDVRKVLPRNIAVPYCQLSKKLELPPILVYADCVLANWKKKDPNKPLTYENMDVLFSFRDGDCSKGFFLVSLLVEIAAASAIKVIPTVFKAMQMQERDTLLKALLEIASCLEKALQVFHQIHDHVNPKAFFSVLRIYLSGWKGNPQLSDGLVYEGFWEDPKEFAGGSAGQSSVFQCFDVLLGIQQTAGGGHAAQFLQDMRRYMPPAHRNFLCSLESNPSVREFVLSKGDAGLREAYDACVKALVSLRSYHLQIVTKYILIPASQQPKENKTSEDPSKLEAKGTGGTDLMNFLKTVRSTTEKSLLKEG
# How it was run: as §1
# [3] = target: T3, human TDO (TDO-expressing HEK293 cells) (Homo sapiens, UniProt P48775); assay: Cell based kynurenine assay, TDO-expressing HEK293 cell clones; conditions: TDO-expressing HEK293 cells, 24 hours incubation; geometric mean; read-out: HEK293 TDO Kynurenine GMean IC50 (μM) (Cellular Assay)
# T3 construct: expressed in transfected cells
# T3 sequence (P48775 whole entry): as the sequence (P48775 whole entry) above
# How it was run: (§2)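 IC50 values come from nonlinear regression of kynurenine reduction in supernatants of human IDO1- or TDO-expressing HEK293 cells incubated 24 h with serially diluted compounds, normalised to cell and media-only controls containing 0.2% DMSO.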
# [4] = target: T4, human IDO (IDO1-expressing HEK293 cells) (Homo sapiens, UniProt P14902); assay: Cell based kynurenine assay, IDO1-expressing HEK293 cell clones; conditions: IDO1-expressing HEK293 cells, 24 hours incubation; geometric mean; read-out: HEK293 IDO1 Kynurenine GMean IC50 (μM) (Cellular Assay)
# T4 construct: expressed in transfected cells
# T4 sequence (P14902 whole entry): as the sequence (P14902 whole entry) above
# How it was run: as §2
SMILES,IC50 [1],IC50 [2],IC50 [3],IC50 [4]
"O=C(O)C1CCC(C(O)c2cc(Cl)cc3cn[nH]c23)CC1 (stereo not drawn) [Compound P-0219, 4-((5-chloro-1H-indazol-7-yl)(hydroxy)methyl)cyclohexane-1-carboxylic acid]",0.0001 to 10 µM,10 to 100 µM,> 10 µM,> 10 µM
"OC(c1cc(Cl)cc2cn[nH]c12)C1(C2CCOCC2)CC1 (stereo not drawn) [Compound P-0221, (5-chloro-1H-indazol-7-yl)(1-(tetrahydro-2H-pyran-4-yl)cyclopropyl)methanol]",0.0001 to 10 µM,0.0001 to 10 µM,0.0001 to 10 µM,0.0001 to 10 µM
"CC(F)(F)C1(C(C)(F)F)CC(O)(c2cc(Cl)cc3cn[nH]c23)C1 [Compound P-0222, 1-(5-chloro-1H-indazol-7-yl)-3,3-bis(1,1-difluoroethyl)cyclobutan-1-ol]",0.0001 to 10 µM,0.0001 to 10 µM,0.0001 to 10 µM,0.0001 to 10 µM
"CCC1(C(O)c2cc(Cl)cc3cn[nH]c23)CCC1 (stereo not drawn) [Compound P-0223, (5-chloro-1H-indazol-7-yl)(1-ethylcyclobutyl)methanol]",0.0001 to 10 µM,0.0001 to 10 µM,0.0001 to 10 µM,0.0001 to 10 µM
"OC(c1cc(Cl)cc2cn[nH]c12)C1(C2CC2)CC1 (stereo not drawn) [Compound P-0225, [1,1′-bi(cyclopropan)]-1-yl(5-chloro-1H-indazol-7-yl)methanol]",0.0001 to 10 µM,0.0001 to 10 µM,0.0001 to 10 µM,0.0001 to 10 µM
"CS(=O)(=O)N1CC(C(O)c2cc(Cl)cc3cn[nH]c23)C1 (stereo not drawn) [Compound P-0226, (5-chloro-1H-indazol-7-yl)(1-(methylsulfonyl)azetidin-3-yl)methanol]",0.0001 to 10 µM,0.0001 to 10 µM,> 10 µM,0.0001 to 10 µM
"OC(c1cc(Cl)cc2cn[nH]c12)C12CCC(F)(CC1)CC2 (stereo not drawn) [Compound P-0227, (5-chloro-1H-indazol-7-yl)(4-fluorobicyclo[2.2.2]octan-1-yl)methanol]",0.0001 to 10 µM,0.0001 to 10 µM,0.0001 to 10 µM,0.0001 to 10 µM
"CC1(C(O)c2cc(Cl)cc3cn[nH]c23)CC2CC2C1 (stereo not drawn) [Compound P-0228, (5-chloro-1H-indazol-7-yl)(3-methylbicyclo[3.1.0]hexan-3-yl)methanol]",0.0001 to 10 µM,0.0001 to 10 µM,0.0001 to 10 µM,0.0001 to 10 µM
"OC(c1cc(Cl)cc2cn[nH]c12)C12CCC(CC1)C2 (stereo not drawn) [Compound P-0229, bicyclo[2.2.1]heptan-1-yl(5-chloro-1H-indazol-7-yl)methanol]",0.0001 to 10 µM,0.0001 to 10 µM,0.0001 to 10 µM,0.0001 to 10 µM
"CN(C)C(C)(C)C(O)c1cc(Cl)cc2cn[nH]c12 (stereo not drawn) [Compound P-0230, 1-(5-chloro-1H-indazol-7-yl)-2-(dimethylamino)-2-methylpropan-1-ol]",10 to 100 µM,10 to 100 µM,> 10 µM,> 10 µM
"CC(C)(C(O)c1cc(Cl)cc2cn[nH]c12)N1CCCC1 (stereo not drawn) [Compound P-0231, 1-(5-chloro-1H-indazol-7-yl)-2-methyl-2-(pyrrolidin-1-yl)propan-1-ol]",10 to 100 µM,100 to 200 µM,> 10 µM,> 10 µM
"CC(C)(N)CC(O)c1cc(Cl)cc2cn[nH]c12 (stereo not drawn) [Compound P-0233, 3-amino-1-(5-chloro-1H-indazol-7-yl)-3-methylbutan-1-ol]",10 to 100 µM,10 to 100 µM,> 10 µM,> 10 µM
"CC1(C(O)c2cc(Cl)cc3cn[nH]c23)CCOCC1 (stereo not drawn) [Compound P-0236, (5-chloro-1H-indazol-7-yl)(4-methyltetrahydro-2H-pyran-4-yl)methanol]",0.0001 to 10 µM,0.0001 to 10 µM,0.0001 to 10 µM,0.0001 to 10 µM
"OC(c1c(Cl)c(Cl)cc2cn[nH]c12)C1(C2CCCCC2)CC1 (stereo not drawn) [Compound P-0238, (1-cyclohexylcyclopropyl)(5,6-dichloro-1H-indazol-7-yl)methanol]",0.0001 to 10 µM,0.0001 to 10 µM,0.0001 to 10 µM,0.0001 to 10 µM
"OC(c1cc(Cl)cc2cn[nH]c12)C1CC2CCC1C2 (stereo not drawn) [Compound P-0240, bicyclo[2.2.1]heptan-2-yl(5-chloro-1H-indazol-7-yl)methanol]",0.0001 to 10 µM,0.0001 to 10 µM,0.0001 to 10 µM,0.0001 to 10 µM
"CC1(C)OC(C)(C)C12CC(O)(c1cc(Cl)cc3cn[nH]c13)C2 [Compound P-0243, 6-(5-chloro-1H-indazol-7-yl)-1,1,3,3-tetramethyl-2-oxaspiro[3.3]heptan-6-ol]",0.0001 to 10 µM,0.0001 to 10 µM,0.0001 to 10 µM,0.0001 to 10 µM
"OC(c1c(F)c(Cl)c(F)c2cn[nH]c12)C1CCC1 (stereo not drawn) [Compound P-0246, (5-chloro-4,6-difluoro-1H-indazol-7-yl)(cyclobutyl)methanol]",0.0001 to 10 µM,0.0001 to 10 µM,0.0001 to 10 µM,0.0001 to 10 µM
"OC(c1c(F)c(Cl)c(F)c2cn[nH]c12)C1(C2CCCCC2)CC1 (stereo not drawn) [Compound P-0247, (5-chloro-4,6-difluoro-1H-indazol-7-yl)(1-cyclohexylcyclopropyl)methanol]",0.0001 to 10 µM,0.0001 to 10 µM,0.0001 to 10 µM,0.0001 to 10 µM
"CC(C)(C)C(O)c1c(F)c(Cl)c(F)c2cn[nH]c12 (stereo not drawn) [Compound P-0248, 1-(5-chloro-4,6-difluoro-1H-indazol-7-yl)-2,2-dimethylpropan-1-ol]",0.0001 to 10 µM,0.0001 to 10 µM,> 10 µM,0.0001 to 10 µM
"OC1(c2c(F)c(Cl)c(F)c3cn[nH]c23)CC2(C1)C1CCCC2CCC1 (stereo not drawn) [Compound P-0249, (1s,5s)-3′-(5-chloro-4,6-difluoro-1H-indazol-7-yl)spiro[bicyclo[3.3.1]nonane-9,1′-cyclobutan]-3′-ol]",0.0001 to 10 µM,0.0001 to 10 µM,> 10 µM,0.0001 to 10 µM

# Now from value to molecule:
IC50 [1],IC50 [2],IC50 [3],IC50 [4],SMILES
0.0001 to 10 µM,0.0001 to 10 µM,0.0001 to 10 µM,0.0001 to 10 µM,"CC(C)(C1CCOCC1)C(O)c1cc(Cl)c(F)c2cn[nH]c12 (stereo not drawn) [Compound P-0217, 1-(5-chloro-4-fluoro-1H-indazol-7-yl)-2-methyl-2-(tetrahydro-2H-pyran-4-yl)propan-1-ol]"
0.0001 to 10 µM,0.0001 to 10 µM,0.0001 to 10 µM,0.0001 to 10 µM,"OC(c1cc(Cl)c(F)c2cn[nH]c12)C(F)(F)C1CCOCC1 (stereo not drawn) [Compound P-0218, 1-(5-chloro-4-fluoro-1H-indazol-7-yl)-2,2-difluoro-2-(tetrahydro-2H-pyran-4-yl)ethan-1-ol]"
0.0001 to 10 µM,0.0001 to 10 µM,0.0001 to 10 µM,0.0001 to 10 µM,"CC(C)(C1CCOCC1)C(O)c1c(Cl)c(Cl)cc2cn[nH]c12 (stereo not drawn) [Compound P-0220, 1-(5,6-dichloro-1H-indazol-7-yl)-2-methyl-2-(tetrahydro-2H-pyran-4-yl)propan-1-ol]"
0.0001 to 10 µM,0.0001 to 10 µM,0.0001 to 10 µM,0.0001 to 10 µM,"CC(C)(C1CC1)C(O)c1cc(Cl)cc2cn[nH]c12 (stereo not drawn) [Compound P-0224, 1-(5-chloro-1H-indazol-7-yl)-2-cyclopropyl-2-methylpropan-1-ol]"
0.0001 to 10 µM,0.0001 to 10 µM,0.0001 to 10 µM,0.0001 to 10 µM,"CC(C)(C1CCOCC1)C(O)c1c(F)c(Cl)cc2cn[nH]c12 (stereo not drawn) [Compound P-0232, 1-(5-chloro-6-fluoro-1H-indazol-7-yl)-2-methyl-2-(tetrahydro-2H-pyran-4-yl)propan-1-ol]"
0.0001 to 10 µM,0.0001 to 10 µM,0.0001 to 10 µM,0.0001 to 10 µM,"Cc1ccc2cn[nH]c2c1C(O)C(C)(C)C1CCOCC1 (stereo not drawn) [Compound P-0234, 2-methyl-1-(6-methyl-1H-indazol-7-yl)-2-(tetrahydro-2H-pyran-4-yl)propan-1-ol]"
0.0001 to 10 µM,0.0001 to 10 µM,0.0001 to 10 µM,0.0001 to 10 µM,"OC(c1c(F)c(Cl)cc2cn[nH]c12)C1(C2CCOCC2)CC1 (stereo not drawn) [Compound P-0235, (5-chloro-6-fluoro-1H-indazol-7-yl)(1-(tetrahydro-2H-pyran-4-yl)cyclopropyl)methanol]"
0.0001 to 10 µM,0.0001 to 10 µM,0.0001 to 10 µM,0.0001 to 10 µM,"OC(c1c(Cl)c(Cl)cc2cn[nH]c12)C1CCC1 (stereo not drawn) [Compound P-0237, cyclobutyl(5,6-dichloro-1H-indazol-7-yl)methanol]"
0.0001 to 10 µM,0.0001 to 10 µM,0.0001 to 10 µM,0.0001 to 10 µM,"CC(C)(C)C(O)c1c(Cl)c(Cl)cc2cn[nH]c12 (stereo not drawn) [Compound P-0239, 1-(5,6-dichloro-1H-indazol-7-yl)-2,2-dimethylpropan-1-ol]"
0.0001 to 10 µM,0.0001 to 10 µM,0.0001 to 10 µM,0.0001 to 10 µM,"[2H]C(O)(c1cc(Cl)cc2cn[nH]c12)C(C)(C)C1CCOCC1 (stereo not drawn) [Compound P-0244, 1-(5-chloro-1H-indazol-7-yl)-2-methyl-2-(tetrahydro-2H-pyran-4-yl)propan-1-d-1-ol]"
